In patent EP4810508A1, “ARABINOSE DERIVATIVE COMPOUND, AND COMPOSITION COMPRISING SAME FOR PREVENTING OR TREATING DEGENERATIVE BRAIN DISEASES” (Digmbio. Inc., priority 2023, dated 2025):
Read-outs that look alike come from different tables or passages of the source. Values belong to the molecule of their own block, whether it stands above or below them.

System: HRE/Luc/HEK293 cells
Assay: HRE (Hypoxia Response Element) luciferase assay
Format: cell-based, human
Settings: for fold induction at 10 µM / fold induction at 100 µM: Homo sapiens; for HRE assay: increase in HRE expression levels by the test substance relative to the vehicle in HRE/Luc/HEK293 cells
Protocol: • (a) HRE assay: Confirmation of increased in HRE expression levels by the test substance relative to the vehicle in HRE/Luc/HEK293 cells • * Less than a twofold increase at 100 µM, • ** More than a twofold increase at 100 µM, • *** More than a twofold increase at 10 µM, • **** More than a twofold increase at 1 µM, • Not performed.
It has been reported that in the brains of AD patients, blood supply is mostly insufficient, resulting in oxygen levels being up to 50% lower than those of normal individuals, leading to increased oxidative stress (ROS) and neuroinflammation. It has also been studied that when the HIF-1α (hypoxia inducible factor-1) factor binds to the HRE (hypoxia response element), it increases VEGF (vascular endothelial growth factor), which promotes the formation of new blood vessels, thereby increasing oxygen levels in the brain and helping to inhibit nerve cell damage.
A reporter gene containing luciferase, capable of verifying the level of HRE expression, was inserted into HEK-293 human embryonic kidney cells, and HRE/Luc/HEK293 cells were constructed by inserting a plasmid (HRE/Luc) with luciferase attached downstream of the HRE promoter that binds to HIF-1α using lipofectamine (Invitrogen).
To perform HRE luciferase analysis, HRE/Luc/HEK293 cells were seeded in 96-well culture plates at a cell density of 4 x 10^4 per well in minimal essential medium (MEM) containing 10% fetal bovine serum. After one day, the cell medium was removed and replaced with medium mixed with various concentrations of example compounds. Six hours after compound pretreatment, HRE/Luc/HEK293 cells were cultured under hypoxic conditions (O2 0.1%) for 18 hours. Subsequently, the cells were washed with phosphate buffer, lysed with lysis buffer, and then the luciferase reagent (Promega) for luciferase analysis was added. Afterward, changes in HRE expression levels associated with HIF-1 signaling were evaluated by measuring luminescence using an Infinite200 (Tecan).

[1] = HEK293, 10uM, fold increase of HRE expression, hypoxic conditions (O2 0.1%) 18 hours, Table 2, read-out: HRE-increasing 10uM
[2] = HEK293, 100uM, fold increase of HRE expression, hypoxic conditions (O2 0.1%) 18 hours, Table 2, read-out: HRE-increasing 100uM
[3] = HEK293, 18 h, 10uM, Table 2 (Examples 37-74, 52), read-out: HKt-increasing 10uM
[4] = HEK293, 18 h, 100uM, Table 2 (Examples 37-74, 52), read-out: HKt-increasing 100uM

Compound: COc1ccc(Cc2ccc(O[C@@H]3OC[C@H](O)[C@H](O)[C@H]3O)cc2)cc1 [Example 4]
fold induction at 10 µM [1]: 1.1 | fold induction at 100 µM [2]: < 1 | HRE assay: α

Compound: COc1ccc(Cc2ccc(O[C@H]3OC[C@H](O)[C@H](O)[C@H]3OC)cc2)cc1 [Example 5, (3S,4S,5R,6R)-5-methoxy-6-(4-(4-methoxybenzyl)phenoxy)tetrahydro-2H-pyran-3,4-diol]
fold induction at 10 µM [1]: 1.2 | fold induction at 100 µM [2]: 1.9

HRE-increasing 10uM (10uM, fold increase of HRE expression, hypoxic conditions (O2 0.1%) 18 hours, Table 2): 1 | HRE-increasing 100uM (100uM, fold increase of HRE expression, hypoxic conditions (O2 0.1%) 18 hours, Table 2): <1
Compound: O[C@@H]1[C@@H](O)[C@@H](Oc2ccc(Cc3ccc(OC(F)(F)F)cc3)cc2)OC[C@@H]1O [Example 10]
HRE assay: •

Compound: CSc1ccc(Cc2ccc(O[C@H]3OC[C@H](O)[C@H](O)[C@H]3O)cc2)cc1 [Example 11, (2R,3R,4S,5S)-2-(4-(4-(methylthio)benzyl)phenoxy)tetrahydro-2H-pyran-3,4,5-triol]
fold induction at 10 µM [1]: 2.4 | fold induction at 100 µM [2]: 2.4 | HRE assay: •••

Compound: CN(C)c1ccc(Cc2ccc(O[C@@H]3OC[C@H](O)[C@H](O)[C@H]3O)cc2)cc1 [Example 12, (2S,3R,4S,5S)-2-(4-(4-(dimethylamino)benzyl)phenoxy) tetrahydro-2H-pyran 3,4,5-triol]
fold induction at 10 µM [1]: 1.2 | fold induction at 100 µM [2]: 1.6 | HRE assay: •

Compound: O[C@@H]1[C@@H](O)[C@@H](Oc2ccc(Cc3cc(C(F)(F)F)cc(C(F)(F)F)c3)cc2)OC[C@@H]1O [Example 16, (2R,3R,4S,5S)-2-(4-(3,5-bis(trifluoromethyl)benzyl)phenoxy) tetrahydro-2H-pyran-3,4,5-triol]
fold induction at 10 µM [1]: 1 | fold induction at 100 µM [2]: < 1

Compound: COc1ccc(Cc2ccc(O[C@H]3OC[C@H](O)[C@H](O)[C@H]3O)cc2)cc1OC [Example 17, (2R,3R,4S,5S)-2-(4-(3,4-dimethoxybenzyl)phenoxy)tetrahydro-2H-pyran-3,4-triol]
fold induction at 10 µM [1]: 1.2 | fold induction at 100 µM [2]: 1.5

Compound: COc1cc(Cc2ccc(O[C@H]3OC[C@H](O)[C@H](O)[C@H]3O)cc2)cc(OC)c1OC [Example 18, (2R,3R,4S,5S)-2-(4-(3,4,5-trimethoxybenzyl)phenoxy) tetrahydro-2H-pyran-3,4,5-triol]
fold induction at 10 µM [1]: 1.2 | fold induction at 100 µM [2]: 1.3

Compound: O[C@@H]1[C@@H](O)[C@@H](Oc2ccc(Cc3ccc4ccccc4c3)cc2)OC[C@@H]1O [Example 19, (2R,3R,4S,5S)-2-(4-(naphthalen-2-ylmethyl)phenoxy) tetrahydro-2H-pyran-3,4,5-triol]
fold induction at 10 µM [1]: 1.3 | fold induction at 100 µM [2]: 1.8

Compound: O[C@@H]1[C@@H](O)[C@@H](Oc2ccc(CC3CCCC3)cc2)OC[C@@H]1O [Example 21, (2R,3R,4S,5S)-2-(4-(cyclopentylmethyl)phenoxy)tetrahydro-2H-pyran-3,4,5-triol]
fold induction at 10 µM [1]: 2.3 | fold induction at 100 µM [2]: 2.4

Compound: O[C@@H]1[C@@H](O)[C@H](Oc2ccc(Cc3cccnc3)cc2)OC[C@@H]1O [Example 24, (2S,3R,4S,5S)-2-(4-(pyridin-3-ylmethyl)phenoxy)tetrahydro-2H-pyran-3,4,5-triol]
fold induction at 10 µM [1]: 1.1 | fold induction at 100 µM [2]: 1.1

Compound: O[C@@H]1[C@@H](O)[C@@H](O)CO[C@@H]1Sc1ccc(Cc2ccccc2)cc1 [Example 26, (2R,3R,4S,5S)-2-((4-benzylphenyl)thio)tetrahydro-2H-pyran-3,4,5-thiol]
fold induction at 10 µM [1]: 2.1 | fold induction at 100 µM [2]: 2.5

Compound: CC(C)c1ccc(Cc2ccc(S[C@@H]3OC[C@H](O)[C@H](O)[C@H]3O)cc2)cc1 [Example 28, (2S,3R,4S,5S)-2-((4-(4-isopropylbenzyl)phenyl)thio) tetrahydro-2H-pyran-3,4,5-triol]
fold induction at 10 µM [1]: 1.8

Compound: COc1ccc(Cc2ccc(S[C@H]3OC[C@H](O)[C@H](O)[C@H]3O)cc2)cc1 [Example 29, (2R,3R,4S,5S)-2-((4-(4-methoxybenzyl)phenyl)thio) tetrahydro-2H-pyran-3,4,5-thiol]
fold induction at 10 µM [1]: 2.7 | fold induction at 100 µM [2]: 2.6

Compound: COc1ccc(C(c2ccc(O[C@H]3OC[C@H](O)[C@H](O)[C@H]3O)cc2)(C(F)(F)F)C(F)(F)F)cc1 [Example 32, (2R,3R,4S,5S)-2-(4-(1,1,1,3,3,3-hexafluoro-2-(4-methoxyphenyl)propan-2-yl)phenoxy)tetrahydro-2H-pyran-3,4,5-triol]
fold induction at 10 µM [1]: 1.3 | fold induction at 100 µM [2]: 1.8

Compound: Cc1cc(C)cc(Oc2ccc(O[C@H]3OC[C@H](O)[C@H](O)[C@H]3O)cc2)c1 [Example 34, (2R,3R,4S,5S)-2-(4-(3,5-dimethylphenoxy)phenoxy)tetrahydro-2H-pyran-3,4,5-triol]
fold induction at 10 µM [1]: 1.1 | fold induction at 100 µM [2]: 1

Compound: COc1ccc(Cc2ccc(O[C@H]3OC[C@H](O)[C@H](O)[C@H]3O)cc2)cc1Cl [Example 37, (2R,3R,4S,5S)-2-(4-(3-chloro-4-methoxybenzyl)phenoxy)tetrahydro-2H-pyran-3,4,5-triol]
fold induction at 10 µM [3]: 1.1 | fold induction at 100 µM [4]: 1.3

Compound: COc1ccc(Cc2ccc(O[C@H]3OC[C@H](O)[C@H](O)[C@H]3O)cc2Cl)cc1 [Example 38, (2R,3R,4S,5S)-2-(3-chloro-4-(4-methoxybenzyl)phenoxy)tetrahydro-2H-pyran-3,4,5-triol]
fold induction at 10 µM [3]: 1.3 | fold induction at 100 µM [4]: 2.2

Compound: CCOc1ccc(Cc2ccc(O[C@H]3OC[C@H](O)[C@H](O)[C@H]3O)cc2)cc1 [Example 39, (2R,3R,4S,5S)-2-(4-(4-ethoxybenzyl)phenoxy) tetrahydro-2H-pyran-3,4,5-triol]
fold induction at 10 µM [3]: 1.1 | fold induction at 100 µM [4]: 1.3

Compound: CC(C)c1ccc(Cc2ccc(O[C@H]3OC[C@H](O)[C@H](O)[C@H]3O)cc2Cl)cc1 [Example 40, (2R,3R,4S,5S)-2-(3-chloro-4-(4-isopropylbenzyl)phenoxy)tetrahydro-2H-pyran-3,4,5-triol]
fold induction at 10 µM [3]: 2.6 | fold induction at 100 µM [4]: 3.1

Compound: COc1ccc(Cc2ccc(O[C@H]3OC[C@@H](O)[C@H](O)[C@H]3O)cc2)cc1 [Example 42, (2R,3R,4S,5R)-2-(4-(4-methoxybenzyl)phenoxy) tetrahydro-2H-pyran-3,4,5-triol]
fold induction at 10 µM [3]: 2.4 | fold induction at 100 µM [4]: 3.1

Compound: CC(C)c1ccc(Cc2ccc(O[C@H]3OC[C@@H](O)[C@H](O)[C@H]3O)cc2)cc1 [Example 43, (2R,3R,4S,5R)-2-(4-(4-isopropylbenzyl)phenoxy)tetrahydro-2H-pyran-3,4,5-triol]
fold induction at 10 µM [3]: 3.3 | fold induction at 100 µM [4]: 2.5 | HRE expression (low concentration of 1 µM): more than threefold

Compound: CC(C)Oc1ccc(Cc2ccc(O[C@H]3OC[C@H](O)[C@H](O)[C@H]3O)cc2)cc1 [Example 44]
fold induction at 10 µM [3]: 1.1 | fold induction at 100 µM [4]: 1.3

Compound: O[C@@H]1[C@@H](O)[C@@H](Oc2ccc(Cc3ccc(OC4CCCC4)cc3)cc2)OC[C@@H]1O [Example 45, (2R,3R,4S,5S)-2-(4-(4-(cyclopentyloxy)benzyl)phenoxy)tetrahydro-2H-pyran-3,4,5-triol]
fold induction at 10 µM [3]: 1.1 | fold induction at 100 µM [4]: 1.3

Compound: COc1ccc(Cc2ccc(O[C@H]3OC[C@H](O)[C@H](O)[C@H]3O)c(F)c2)cc1 [Example 46, (2R,3R,4S,5S)-2-(2-fluoro-4-(4-methoxybenzyl)phenoxy)tetrahydro-2H-pyran-3,4,5-triol]
fold induction at 10 µM [3]: 1.1 | fold induction at 100 µM [4]: 1.8

Compound: COc1ccc(Cc2ccc(O[C@H]3OC[C@H](O)[C@H](O)[C@H]3O)cc2F)cc1 [Example 47, (2R,3R,4S,5S)-2-(3-fluoro-4-(4-methoxybenzyl)phenoxy)tetrahydro-2H-pyran-3,4,5-trio]
fold induction at 10 µM [3]: 1 | fold induction at 100 µM [4]: 1.2

Compound: CC(C)c1ccc(Cc2ccc(O[C@H]3OC[C@H](O)[C@H](O)[C@H]3O)cc2F)cc1 [Example 48, (2R,3R,4S,5S)-2-(3-fluoro-4-(4-isopropylbenzyl)phenoxy)tetrahydro-2H-pyran-3,4,5-triol]
fold induction at 10 µM [3]: 1.3 | fold induction at 100 µM [4]: 2.3

Compound: COc1ccc(Cc2ccc(O[C@H]3OC[C@H](O)[C@H](O)[C@H]3O)cc2)c(Cl)c1 [Example 49, (2R,3R,4S,5S)-2-(4-(2-chloro-4-methoxybenzyl)phenoxy)tetrahydro-2H-pyran-3,4,5-triol]
fold induction at 10 µM [3]: 1 | fold induction at 100 µM [4]: 1.1
